pEC50, pIC50: −log10 of the molar value. Read-outs that look alike come from different tables or passages of the source.
Assays:
Assay type in all cases: cell-based
THP1-Dual KO-TREX1 cells [1] = assay: THP1 TREX1 KO inhibition assay (type 1 interferon response); conditions: Homo sapiens, 144 h, type 1 interferon (QUANTI-LUC), 1 μM 5-aza-2′-deoxycytidine, six days
In short: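 THP1-Dual KO-TREX1 cells were treated with a dose titration of compound, alone or with 1 μM 5-aza-2′-deoxycytidine, for six days at 37 °C. Type 1 interferon was read as secreted luciferase (QUANTI-LUC) in the supernatant, and viability by CellTiter-Glo luminescence.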

human PBMC = assay: Decitabine-stimulated human PBMC assay; conditions: PBMCs, anti-CD3/anti-CD28, decitabine 10 μM, 5 days; FIGS. 3A and 3B
Experimental: EasySep buffer (32 mL, […] Technologies, cat. #20144) was used to dilute 8 mL of LRSC buffy coat (from fresh Leukopak) with gentle mixing. The diluted buffy coat (20 mL) was transferred into each of two SepMate 50 tubes, and the tubes were filled with 15 mL of Lyphoprep ([…], cat. #07851) density gradient. The SepMate tubes were then centrifuged at 1200 G for 10 minutes at room temperature with the brake on. The top layer of supernatant was collected in SepMate tubes by quickly pouring it into a new 50 mL conical tube. The PBMCs were washed with EasySep buffer×2 by centrifuging at 300 G for 5 minutes. The cells were resuspended in 30 mL of EasySep and centrifuged at 100 G for 5 minutes with the brake off, and the platelets were removed. The cells were then resuspended in 6 mL of 1×RBC lysis buffer (Invitrogen) and incubated at 37° C. for 5 minutes. 25 mL of EasySep buffer was then mixed into the tube and centrifuged at 300 G for 5 minutes. The cells were resuspended in 10 mL of EasySep buffer and the cells were then counted with Cellometer (AO/PI). The PBMCs were resuspended in RPMI1640 (ThermoFisher)+ 10% FBS (HyClone)+μ/s at 3×10^6/mL. The PBMCs (100 μL, 300 k PBMCs) were then seeded in a 96-well flat bottom microplate (Corning) that had been precoated with 100 μL of anti-CD3 antibody (10 μg/mL in PBS, Biolegend) or PBS at 4° C., one day before the assay was commenced.
To each well the following solutions were added 1) 100 μL of cells (final cell number per well is 3×10^5 cell/well); 2) 25 μL of anti-CD28 antibody at 6× (5 μg/mL final concentration, Biolegend); 3) 25 μL of decitabine at 6× (10 μM final concentration); and 4) Compound in DMSO was dispensed directly into each well with a d300e digital dispenser (Tecan). The final concentration of DMSO for each well was normalized to 0.3%. The plate was incubated at 37° C. without any agitation for 5 days. Samples were collected 120 hours after incubation to determine IFN-β […] levels using a U-PLEX Human IFN-β Assay Sector (5PL) (MSD, cat. #K151VIK-2).
After 5 days, the plate was spun down at 100×G for 5 minutes. Supernatants (100 μL) were collected for interferon R (IFN-0) analysis using the MSD assay noted above, and any residual supernatant was stored at −80° C.

[2] = Mitochondria toxicity assay with PC3 cells, in-cell ELISA COX-1; conditions: 5 days treatment
In short: (§1)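 This in-cell ELISA was run on fixed, permeabilized PC3 cells after 5-day exposure to titrated compound, with cytotoxicity measured on a duplicate plate. Results are reported as categories A (<1.0 μM) to E (>100.0 μM).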

[3] = test system: SDH-A (succinate dehydrogenase-A); assay: Mitochondria toxicity assay with PC3 cells, in-cell ELISA SDH-A; conditions: 5 days treatment
In short: as §1

PC3 cells = assay: Mitochondria toxicity assay with PC3 cells, cytotoxicity (Cell Titer Glo); conditions: Homo sapiens, PC-3, 120 h, 5 days treatment
In short: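 PC3 cells in F-12K with 10% FBS exposed to a compound dose titration for 5 days at 37° C, 5% CO2. Viability by Cell Titer Glo luminescence after 30 min at room temperature; values binned A (<1.0 μM) to E (>100.0 μM).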

7S mitochondria DNA = assay: Mitochondria DNA assay with PC3 cells; conditions: Homo sapiens, PC-3, 120 h, 5 days, 7S mitochondria DNA level by qPCR relative to 18S or GAPDH
Experimental: Exemplary compounds were tested for their effect on levels of 7S mitochondria DNA, and the DNA of housekeeping genes 18S and GAPDH. Reduction of 7S mitochondria DNA indicates off-target inhibition of mitochondrial DNA synthesis, which leads to mitochondrial toxicity. Assay procedures and results are described below.
PC3 cells were purchased from ATCC and cultured in F-12 Kaighn's modified medium (Hyclone), 10% heat-inactivated fetal bovine serum (Gibco), 1% Penicillin-Streptomycin (Invitrogen). PC3 cells were treated with a dose titration of a test compound on 6 well plates for 5 days at 37° C., 5% CO2 in a humidified incubator.
Cells were harvested and mitochondria DNA extraction was performed using DNeasy Blood & Tissue Kit (Qiagen) according to the manufacture's instruction.
Mitochondria 7S and housekeeping genes 18S and GAPDH DNA was quantified by multiplex qPCR with the PowerUp™ SYBR™ Green system (Applied Biosystems). Prepare reaction mix consisting of 5 μl of 2× PowerUp™ SYBR™ Green Master Mix, 1 μl of 5 μM Primers for 7S, 18S, or GAPDH, 4 μl of DNA template from DNA extraction above. The primer sequences are below:
qPCR was performed on QuantStudio™ 7 Flex RealTime qPCR system (Applied Biosystems) as set forth below: • a. 50° C. for 2 minutes, then • b. 95° C. for 2 minutes, then • c. 95° C. for 15 seconds, then • d. 60° C. for 60 seconds, • where then steps (c) and (d) were repeated 60 times.
Threshold was calculated by QuantStudio™ 7 Flex Software (ThermoFisher Scientific) using the default settings. Ct values were used to evaluate the relative mitochondria DNA (mtDNA) level using the following formula: ΔCt=Ct (7S target gene)−Ct (18S) or ΔCt=Ct (7S target gene)−Ct (GAPDH). Relative mtDNA level=2^−Δct. Expression fold over DMSO control=2^−Δct (compound treated group)/2^−Δct (DMSO group)
In the table “A” represents values≤0.1 μM; “B” represents values from >0.1 μM to ≤1.0 μM; “C” represents values from >1.0 μM to ≤10.0 μM; “D” represents values from >10.0 μM to ≤100.0 μM; and “E” represents values>100.0 μM.

THP1-Dual KO-TREX1 cells [4] = assay: THP1 TREX1 KO inhibition assay, combination dosing; conditions: Homo sapiens, THP1-Dual, read-out: EC50 of Stampidine
Experimental: Exemplary compounds were tested to determine the effect of combined dosing of two compounds on the type 1 interferon response in THP1 Dual TREX1 KO cells treated with 5-aza-2′-deoxycytidine. Assay procedures and results are described below.
THP1 Dual TREX1 KO cells were purchased from InvivoGen. The THP1-Dual™ KO-TREX1 cells were cultured in RPMI 1640, 10% heat-inactivated fetal bovine serum, 25 mM HEPES, 10 μg/mL blasticidin, and 100 μg/mL Zeocin. THP1-Dual™ KO-TREX1 cells were treated with a dose titration of test compound in the presence of 1 μM 5-aza-2′-deoxycytidine (Sigma, cat #189825). Type 1 Interferon and cell viability were assessed after five days of treatment.
Stock solution of test compounds stampidine and Compound 2 were prepared in DMSO followed by a three-fold dilution in DMSO. The plate was prepared with a matrix of test compound concentrations, with stampidine on the y-axis (final concentrations 3 μM to 0.0003 μM) and Compound 2 on the x-axis (final concentrations 0.3 μM to 0.00003 μM). Additional 50× dilution was prepared in cell culture media for each dilution. 10 μL of diluted test compound was then added to a 384-well plate.
THP1-Dual™ KO-TREX1 cells were treated with 1 μM 5-aza-2′-deoxycytidine. THP1-Dual™ KO-TREX1 cells (50 μL) were added to each well of the 384-well plate containing test compound titration at 10,000 cells/well. Cells were incubated at 37° C., 5% CO2 in a humidified incubator for five days. On day five, 20 μL of cell supernatant was transferred to a 384-well, white-walled plate, followed by addition to each well of 50 μL of QUANTI-LUC solution containing stabilizer. Luminescence was detected on a plate reader according to manufacturer's instructions. Percent inhibition of interferon was calculated using the following analysis: (Average DMSO-Sample)/(Average DMSO-Average 30 μM stampidine)*100.
The remaining cells were assessed for cell viability by adding 30 μl of CellTiter-Glo (Promega, G9683) solution to each well, and placed on a shaker for 10 minutes at room temperature. Luminescence was detected on a plate reader, according to manufacturer's instructions. Percent inhibition of cell viability using CellTiter-Glo was calculated using the following analysis: (Average DMSO−Sample)/(Average DMSO−Average 20 μM viability control reagent)*100.
Combination analysis was performed using the Bivariate Response to Additive Interacting Doses (BRAID) according to Twarog, N. R., et al. Scientific Reports 6:25523 (DOI: 10.1038/srep25523). The best BRAID fit was determined to be k 2.00 (0.583-3.64), where k>0 denotes synergy, k=0 denotes additivity, and k<0 denotes antagonism. Potentiation modeling curves are provided for potentiation of Compound 2 at four concentrations of stampidine (FIG. 7A) and for potentiation of stampidine at four concentrations of Compound 2 (FIG. 7B).

Structure (SMILES) | pIC50 (THP1-Dual KO-TREX1 cells [1]) | IFN-β production (human PBMC) | pIC50 [2] | pIC50 [3] | pIC50 (PC3 cells) | pIC50 (7S mitochondria DNA) | pEC50 (THP1-Dual KO-TREX1 cells [4]; Compound 2 0 μM) | pEC50 (THP1-Dual KO-TREX1 cells [4]; Compound 2 0.0001 μM) | pEC50 (THP1-Dual KO-TREX1 cells [4]; Compound 2 0.001 μM) | pEC50 (THP1-Dual KO-TREX1 cells [4]; Compound 2 0.01 μM)
C#C[C@]1(CO)O[C@@H](n2cnc3c(N)nc(F)nc32)C[C@@H]1O [Compound 23, (2R,3S,5R)-5-(6-amino-2-fluoro-9H-purin-9-yl)-2-ethynyl-2-(hydroxymethyl) tetrahydrofuran-3-ol] | < 6.00 | activated production of IFN-β | 4.30 to 5.00 | 4.00 to 4.30 | 4.30 to 5.00 | – | – | – | – | –
C#C[C@]1(CO)O[C@@H](n2cc(F)c(N)nc2=O)[C@@H](O)[C@@H]1O [Compound 116, 4-amino-1-((2R,3S,4S,5R)-5-ethynyl-3,4-dihydroxy-5-(hydroxymethyl)tetrahydrofuran-2-yl)-5-fluoropyrimidin-2(1H)-one] | < 6.00 | – | < 4.00 | < 4.00 | < 4.00 | < 4.00 | – | – | – | –
[N-]=[N+]=N[C@]1(CO)O[C@@H](c2cc(I)c3c(N)ncnn23)C[C@@H]1O [Compound 161, (2R,3S,5R)-5-(4-amino-5-iodopyrrolo[2,1-f][1,2,4]triazin-7-yl)-2-azido-2-(hydroxymethyl)tetrahydrofuran-3-ol] | 7.00 to 7.30 | – | 5.00 to 6.00 | 5.00 to 6.00 | 5.00 to 6.00 | < 4.00 | – | – | – | –
CC(C)C(=O)OC[C@@]1(CCl)O[C@@H](n2cc(F)c(N)nc2=O)[C@@H](F)[C@@H]1OC(=O)C(C)C [Compound 173, (2R,3R,4S,5R)-5-(4-amino-5-fluoro-2-oxopyrimidin-1(2H)-yl)-2-(chloromethyl)-4-fluoro-2-((isobutyryloxy)methyl) tetrahydrofuran-3-yl isobutyrate] | < 6.00 | – | 4.00 to 4.30 | < 4.00 | < 4.00 | < 4.00 | – | – | – | –
COC(=O)C(C)NP(=O)(OC[C@@H]1C=C[C@H](n2cc(C)c(=O)[nH]c2=O)O1)Oc1ccc(Br)cc1 (stereo partly drawn) [Stampidine, stampidine, reference compound] | – | – | – | – | – | – | 6.94 | 6.99 | 7.10 | 7.54

From patent US12187758B2 (ROME Therapeutics, Inc., priority 2022, dated 2025)
